Reference: US9187411B2, “Leukotriene B4 antagonist compound” (Eli Lilly and Company, priority 2012, dated 2015)

Molecular target: T1, PPARα (Homo sapiens, UniProt Q07869)
T1 construct: made in house; host or cells: Sf9 insect cells (baculovirus), crude cell lysate
T1 sequence (Q07869 1-468): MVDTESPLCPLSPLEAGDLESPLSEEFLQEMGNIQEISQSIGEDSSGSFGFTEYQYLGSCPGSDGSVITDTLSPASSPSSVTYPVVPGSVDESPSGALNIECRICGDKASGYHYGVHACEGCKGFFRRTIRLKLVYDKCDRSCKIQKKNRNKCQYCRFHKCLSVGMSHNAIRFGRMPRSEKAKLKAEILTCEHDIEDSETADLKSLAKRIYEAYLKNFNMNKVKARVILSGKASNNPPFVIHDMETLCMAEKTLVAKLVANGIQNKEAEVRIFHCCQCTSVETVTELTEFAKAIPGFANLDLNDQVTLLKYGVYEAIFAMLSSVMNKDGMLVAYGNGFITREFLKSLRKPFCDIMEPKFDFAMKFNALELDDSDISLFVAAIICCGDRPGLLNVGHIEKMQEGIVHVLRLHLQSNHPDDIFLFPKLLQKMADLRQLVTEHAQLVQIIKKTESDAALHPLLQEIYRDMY
T1 sequence (P19793 1-462 partner): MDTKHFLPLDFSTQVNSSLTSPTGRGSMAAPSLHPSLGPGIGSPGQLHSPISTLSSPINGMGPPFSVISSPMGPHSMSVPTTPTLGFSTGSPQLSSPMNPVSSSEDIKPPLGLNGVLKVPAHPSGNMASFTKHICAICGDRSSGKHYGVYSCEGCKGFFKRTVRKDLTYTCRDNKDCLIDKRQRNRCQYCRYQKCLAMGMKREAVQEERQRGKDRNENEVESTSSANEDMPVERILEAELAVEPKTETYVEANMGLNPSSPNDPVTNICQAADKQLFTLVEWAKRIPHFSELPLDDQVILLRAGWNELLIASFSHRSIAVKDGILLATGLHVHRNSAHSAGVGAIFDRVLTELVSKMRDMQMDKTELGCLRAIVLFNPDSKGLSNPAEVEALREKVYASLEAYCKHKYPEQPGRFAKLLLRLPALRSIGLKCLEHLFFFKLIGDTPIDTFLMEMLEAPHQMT
Test: PPAR alpha binding assay (SPA)
Conditions: tritiated GW2331, n=3, read-out: Ki PPAR α binding
Text: The nucleotide sequences encoding full-length PPARα receptor DNA (National Center for Biotechnology Information (NCBI) Reference Sequence NM_005036.4), PPARδ receptor DNA (NCBI Reference Sequence NM_006238.4), PPARγ receptor DNA (NCBI Reference Sequence NM_015869.4) and Retinoid X Receptor (RXR) α DNA (NCBI Reference Sequence NM_002957.4) are synthesized and inserted into pFastBacHTb (Invitrogen) vector in-framed with the N-terminal HIS tag from the vector. […] The protein concentration is determined by Bradford assay using BSA as the standard.
Binding Affinities of Compounds for the PPAR α, δ, γ Receptors are Assessed Using Scintillation Proximity Assay (SPA) Technology.
Biotinylated oligonucleotide(DR2) ^5′[…]^3′ (SEQ ID NO: 1) is used for binding of receptors to Yttrium silicate streptavidin-coated SPA beads (Perkin Elmer). The PPAR α, δ, γ and Retinoid X Receptor (RXR) α receptors (endogenously expressed as heterodimers) are cell lysates from Baculovirus expression systems in Sf9 cells. […] Non-specific binding is determined in the presence of 10000 nM unlabeled GW2331 (Kliewer, S. A. et al Proc. Natl. Acad. Sci. USA (1997), 94: 4318-4323) for the alpha and delta receptors and 2-methyl-2-[4-[3-[propyl[(5-pyridin-2-ylthiophen-2-yl)sulfonyl]amino]-propyl]phenoxy]propanoic (WO 2004/073606) for the gamma receptor. […]

CCCc1c(NC(=O)CC(C)(C)C(=O)[O-])cccc1OCCCOc1cc(O)c(-c2ccc(F)cc2)cc1CC.[Na+] [Example 2, Sodium 4-[[3-[3-[2-ethyl-4-(4-fluorophenyl)-5-hydroxy-phenoxy]propoxy]-2-propyl-phenyl]amino]-2,2-dimethyl-4-oxo-butanoate]
Ki: ~617 nM
